# Assay results taken from publication PMC11314621, “Cheminformatics-Guided Exploration of Synthetic Marine Natural Product-Inspired Brominated Indole-3-Glyoxylamides and Their Potentials for Drug Discovery” (Molecules, 2024).
# Like-named read-outs stand apart in the source and are kept apart here.
# Legend:
# P. falciparum 3D7 = test: Antiplasmodial image-based assay, 3D7 strain; type: cell-based, Plasmodium falciparum; conditions: chloroquine-sensitive P. falciparum strain 3D7; for IC50 / inhibition: Plasmodium falciparum; for IC50: control compounds; for % Inhibition @ 60 µM, 3D7 / inhibition: 72 h, 60 µM; for inhibition: 3D7, 72 h
# Method: (§1) An anti-plasmodial imaging assay reported by Duffy and Avery was used to examine the antiplasmodial activities of synthetic indoles 25, 26, 36, 37, 38, 40, 41, 43, 45, 46, 47, 48, 50 and 51. All compounds were diluted to […] in DMSO and tested at three increasing concentrations from 0.4 nM–40 μM per log dose in a 16-point CRC ([…]) parasite strains of Plasmodium falciparum. […] Normalised percent inhibition data was obtained using in-plate positive (4 μM DHA) and negative (0.4% DMSO) controls, which were then used to calculate IC50 values. Compounds were incubated in CellCarrier-384 well imaging plates in the presence of 2% parasitemia (3D7 or Dd2) at 0.3% hematocrit in a total assay volume of 50 μL for 72 h at 37 °C, 5% O2, 5% CO2 and 90% N2. After incubation, plates were stained with 4′,6-diamidino-2-phenylindole (DAPI) and imaged using an Opera Phenix high-content imaging system (Revvity, Mulgrave, Victoria, Australia). Images were analysed using Harmony (Revvity) software (version 3), while percent parasite inhibition was calculated using the minimum (0.4% DMSO) and (DHA). IC50 values were determined by plotting % inhibition against log dose and analysed using nonlinear regression and sigmoidal dose-response using GraphPad Prism version 6.
# P. falciparum Dd2 = test: Antiplasmodial image-based assay, Dd2 strain; type: cell-based, Plasmodium falciparum; conditions: chloroquine-resistant P. falciparum strain Dd2; for IC50: Plasmodium falciparum, control compounds; for % Inhibition @ 60 µM, Dd2: 72 h
# Method: as §1
# [1] = molecular target: T1, porcine pancreatic elastase (Sus scrofa, UniProt P00772); test: Serine protease assay, elastase; type: biochemical; conditions: remaining enzyme activity
# T1 construct: high-purity porcine pancreatic elastase (Sigma, Melbourne, Victoria, Australia, E0258); purchased Sigma E0258
# Method: (§2) Serine protease-inhibitory activities for 25–56 were determined in 96 well plates. Each inhibitor was initially tested in duplicate against elastase and chymotrypsin at 10 µM. […] Assays for the inhibition of elastase were undertaken using high-purity porcine pancreatic elastase (Sigma, Melbourne, Victoria, Australia, E0258) in an assay buffer of 50 mM Tris-HCl (pH 8.0) at room temperature. Dilutions of each inhibitor (originally resuspended in DMSO) were prepared in triplicate and then preincubated with 375 ng of elastase for 15 min at room temperature in a total reaction volume of 85 µL. Following this preincubation, 15 µL of 2 mM N-succinyl-Ala-Ala-Ala-p-nitroanilide (Sigma, S4760) in assay buffer was added to each well and kinetic measurement of absorbance at 405 nm (Tecan Spark Plate Reader, Zürich, Switzerland) was undertaken for 30 min. […] Dilutions of each inhibitor were prepared in triplicate and preincubated with 5 µg of chymotrypsin for 10 min at 37 °C in a total reaction volume of 75 µL. After preincubation, 25 µL of 2 mM N-succinyl-Gly-Gly-Phe-p-nitroanilide (Sigma, S1899) was added to each well and kinetic measurement of absorbance at 405 nm was undertaken for 30 min. Inhibitory activity was determined by comparison of the slope of the reaction curve for multiple dilutions of the inhibitor to that of an equivalent solvent control and expressed as IC50 ± standard deviation.
# [2] = molecular target: T2, α-chymotrypsin from bovine pancreas (Bos taurus, UniProt P00766); test: Serine protease assay, chymotrypsin; type: biochemical; conditions: 10 µM; remaining enzyme activity
# T2 construct: α-chymotrypsin from bovine pancreas (Sigma, C4129); purchased Sigma C4129; host or cells: bovine pancreas
# Method: as §2
# SARS-CoV-2 3CLpro = molecular target: T3, SARS-CoV-2 3CLpro (Severe acute respiratory syndrome coronavirus 2, UniProt P0DTD1); test: biochemical
# T3 construct: Each well contained 25 nM of SARS-CoV-2 3CL^Pro and eCFP-Venus biosensor (500 nM)
# HEK293 cells = test: HEK293 cell cytotoxicity; type: cell-based; conditions: human embryonic kidney cell line
# T1 sequence (P00772 27-266): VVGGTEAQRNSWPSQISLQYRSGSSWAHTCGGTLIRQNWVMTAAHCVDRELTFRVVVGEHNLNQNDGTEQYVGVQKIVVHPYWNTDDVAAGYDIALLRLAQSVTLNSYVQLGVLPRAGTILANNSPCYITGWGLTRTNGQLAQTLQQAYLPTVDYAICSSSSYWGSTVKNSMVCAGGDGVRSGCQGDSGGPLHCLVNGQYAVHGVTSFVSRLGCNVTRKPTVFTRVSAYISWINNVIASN
Compound,"% enzyme activity @ 10 µM, elastase [1] [%]","% enzyme activity @ 10 µM, chymotrypsin [2] [%]","% inhibition @ 20 µM, No DTT (SARS-CoV-2 3CLpro; 20 µM, no DTT) [%]","% inhibition @ 20 µM, DTT (SARS-CoV-2 3CLpro; 20 µM, with DTT (4 mM)) [%]",further results
"CCN(CC)CCCC(C)Nc1ccnc2cc(Cl)ccc12 (stereo not shown) [Chloroquine, reference compound]",,,,,IC50 (P. falciparum 3D7): 77.8 nM; IC50 (P. falciparum Dd2): 696 nM
"C[C@H](NC(=O)C(=O)c1c[nH]c2cc(Br)ccc12)C(=O)O [Compound 27, 6-bromoindolyl-3-glyoxyl-L-alanine]",109.6,94.4,1.9,1.3,
"C[C@@H](NC(=O)C(=O)c1c[nH]c2cc(Br)ccc12)C(=O)O [Compound 28, 6-bromoindolyl-3-glyoxyl-D-alanine]",107.4,92.1,1.7,0.8,
"N=C(N)NCCC[C@H](NC(=O)C(=O)c1c[nH]c2ccc(Br)cc12)C(=O)O [Compound 29, 5-bromoindolyl-3-glyoxyl-L-arginine]",100.8,88.8,13.8,2.4,
"N=C(N)NCCC[C@@H](NC(=O)C(=O)c1c[nH]c2ccc(Br)cc12)C(=O)O [Compound 30, 5-bromoindolyl-3-glyoxyl-D-arginine]",96.2,86.3,10.1,1.0,
"N=C(N)NCCC[C@H](NC(=O)C(=O)c1c[nH]c2cc(Br)ccc12)C(=O)O [Compound 31, 6-bromoindolyl-3-glyoxyl-L-arginine]",99.3,99.5,4.3,2.4,
"N=C(N)NCCC[C@@H](NC(=O)C(=O)c1c[nH]c2cc(Br)ccc12)C(=O)O [Compound 32, 6-bromoindolyl-3-glyoxyl-D-arginine]",102.3,99.2,3.0,0.8,
"O=C(N[C@@H](CSSC[C@H](NC(=O)C(=O)c1c[nH]c2ccc(Br)cc12)C(=O)O)C(=O)O)C(=O)c1c[nH]c2ccc(Br)cc12 [Compound 33, 5-bromoindolyl-3-glyoxyl-L-cystine]",,,,,"remaining activity at 10 µM [1]: 107%; remaining activity at 10 µM [2]: 94.7%; inhibition at 20 µM (SARS-CoV-2 3CLpro; 20 µM, no DTT, read-out: % inhibition @ 20 µM, No DTT): 64.1%; inhibition at 20 µM (SARS-CoV-2 3CLpro; 20 µM, with DTT (4 mM), read-out: % inhibition @ 20 µM, DTT): 2%; IC50 (SARS-CoV-2 3CLpro; no DTT): 12500 nM"
"O=C(N[C@@H](CO)C(=O)O)C(=O)c1c[nH]c2ccc(Br)cc12 [Compound 43, 5-bromoindolyl-3-glyoxyl-L-serine]",101.4,96.1,105.5,2.0,"% Inhibition @ 60 µM, HEK293 (HEK293 cells): 21.0%; % Inhibition @ 60 µM, 3D7 (P. falciparum 3D7): 1.0%; IC50 (SARS-CoV-2 3CLpro; no DTT): 1200 nM; % Inhibition @ 60 µM, Dd2 (P. falciparum Dd2): 1.0%"
"O=C(N[C@@H](CO)C(=O)O)C(=O)c1c[nH]c2cc(Br)ccc12 [Compound 44, 6-bromoindolyl-3-glyoxyl-L-serine]",99.0,97.1,7.3,2.9,
"O=C(N[C@@H](Cc1c[nH]c2ccccc12)C(=O)O)C(=O)c1c[nH]c2cc(Br)ccc12 [Compound 47, 6-bromoindolyl-3-glyoxyl-L-tryptophan]",89.5,99.6,24.4,4.1,"% Inhibition @ 60 µM, HEK293 (HEK293 cells): 14.0%; % Inhibition @ 60 µM, 3D7 (P. falciparum 3D7): 14.0%; % Inhibition @ 60 µM, Dd2 (P. falciparum Dd2): 20.0%"
"O=C(N[C@H](Cc1c[nH]c2ccccc12)C(=O)O)C(=O)c1c[nH]c2cc(Br)ccc12 [Compound 48, 6-bromoindolyl-3-glyoxyl-D-tryptophan]",91.1,83.6,20.8,2.0,"% Inhibition @ 60 µM, HEK293 (HEK293 cells): 16.0%; % Inhibition @ 60 µM, 3D7 (P. falciparum 3D7): 99.0%; % Inhibition @ 60 µM, Dd2 (P. falciparum Dd2): 97.5%"
"O=C(N[C@@H](Cc1ccc(O)cc1)C(=O)O)C(=O)c1c[nH]c2ccc(Br)cc12 [Compound 49, 5-bromoindolyl-3-glyoxyl-L-tyrosine]",99.5,82.9,15.0,1.9,
"O=C(N[C@H](Cc1ccc(O)cc1)C(=O)O)C(=O)c1c[nH]c2ccc(Br)cc12 [Compound 50, 5-bromoindolyl-3-glyoxyl-D-tyrosine]",95.3,89.2,6.1,0.9,"% Inhibition @ 60 µM, HEK293 (HEK293 cells): 20.5%; % Inhibition @ 60 µM, 3D7 (P. falciparum 3D7): 99.0%; % Inhibition @ 60 µM, Dd2 (P. falciparum Dd2): 97.5%"
"CC(C)[C@H](NC(=O)C(=O)c1c[nH]c2ccc(Br)cc12)C(=O)O [Compound 53, 5-bromoindolyl-3-glyoxyl-L-valine]",101.3,91.6,1.9,1.3,
"CC(C)[C@@H](NC(=O)C(=O)c1c[nH]c2ccc(Br)cc12)C(=O)O [Compound 54, 5-bromoindolyl-3-glyoxyl-D-valine]",105.4,97.3,1.3,1.0,
"CC(C)[C@H](NC(=O)C(=O)c1c[nH]c2cc(Br)ccc12)C(=O)O [Compound 55, 6-bromoindolyl-3-glyoxyl-L-valine]",88.9,105.0,6.8,3.0,
"CC(C)[C@@H](NC(=O)C(=O)c1c[nH]c2cc(Br)ccc12)C(=O)O [Compound 56, 6-bromoindolyl-3-glyoxyl-D-valine]",104.4,94.0,6.8,2.7,
"C[C@H]1[C@@H](O)O[C@@H]2O[C@@]3(C)CC[C@H]4[C@H](C)CC[C@@H]1[C@@]24OO3 [Dihydroartemisinin, reference compound]",,,,,inhibition (P. falciparum 3D7): 100%; IC50 (P. falciparum 3D7): 1.3 nM; IC50 (P. falciparum Dd2): 1.7 nM
"O=c1c2ccccc2[se]n1-c1ccccc1 [Ebselen, reference compound]",,,,,"inhibition at 20 µM (SARS-CoV-2 3CLpro; read-out: % inhibition @ 20 µM, DTT): 0.2%; inhibition at 20 µM (SARS-CoV-2 3CLpro; read-out: % inhibition @ 20 µM, No DTT): 114%"
"COc1ccc(C[C@H](N)C(=O)N[C@H]2[C@@H](O)[C@H](n3cnc4c(N(C)C)ncnc43)O[C@@H]2CO)cc1 [Puromycin, reference compound]",,,,,IC50 (HEK293 cells; HEK293): 673 nM; IC50 (P. falciparum 3D7): 79.2 nM; IC50 (P. falciparum Dd2): 86.5 nM
"CCc1nc(N)nc(N)c1-c1ccc(Cl)cc1 [Pyrimethamine, reference compound]",,,,,inhibition (P. falciparum 3D7): -10%; IC50 (P. falciparum 3D7): 14.1 nM
